# Results reported in patent US20080306038A1, “Compositions and Methods for Modulating Inflammation Using Fluoroquinolones” (priority 2007, published 2008).
# What was measured:
# Type in all cases: cell-based, human
# IL-6 = assay: LPS-stimulated IL-6 production in THP-1 monocytes (multiplex Luminex); design: key to Inhibition of LPS-stimulated IL-6 production: “X” signifies significant inhibition at a particular concentration; conditions: 18 hours, THP-1 monocytes
# Description: (§1) Human THP-1 monocytes (ATCC TIB 202) were purchased from American Type Culture Collection (Manassas, Va.) and maintained in RPMI 1640 medium (Invitrogen, Carlsbad, Calif.) supplemented with 10% fetal bovine serum (“FBS”, Invitrogen, Carlsbad, Calif.), 100 U/mL of penicillin (Invitrogen, Carlsbad, Calif.), and 100 μg/mL of streptomycin (Invitrogen, Carlsbad, Calif.) at 37° C. in a humidified incubator with 5% CO2. THP-1 cells were pre-cultured in RPMI 1640 medium containing 10% dialyzed serum for 24 h. […] Each treatment was performed in triplicate.
# (§2) Samples were analyzed using multiplex bead technology, which utilizes microspheres as the solid support for immunoassays and allows the analysis of all cytokines from each sample (D. A. Vignali, J. Immunol. Methods, Vol. 243, 243-255 (2000)). Sixteen cytokines were measured according to the manufacturer's instructions. Briefly, 50 μL of medium samples were incubated with antibody-coated capture beads overnight at 4° C. Washed beads were further incubated with biotin-labelled anti-human cytokine antibodies for 2 h at room temperature followed by incubation with streptavidin-phycoerythrin for 30 min. Samples were analyzed using Luminex 200™ (Luminex, Austin, Tex.) and Beadview software v1.0 (Upstate Cell Signaling Solutions, Temecula, Calif.). Standard curves of known concentrations of recombinant human cytokines were used to convert fluorescence units (median fluorescence intensity) to cytokine concentration in pg/mL. Only the linear portions of the standard curves were used to quantify cytokine concentrations, and in instances where the fluorescence reading exceeded the linear range of the standard curve, an appropriate dilution was performed to ensure that the concentration was in the linear portion of the curve.
# (§3) All cytokine concentrations (pg/mL) were expressed as mean ±standard deviation. Statistical analysis comparing effects of treatment across groups was performed using a one-way ANOVA with a Dunnett's post-hoc comparison test using either vehicle control or LPS treatment as references. For all assays, p≦0.05 was predetermined as the criterion of statistical significance.
# IL-12p40 = assay: LPS-stimulated IL-12p40 production in THP-1 monocytes (multiplex Luminex); design: key to Inhibition of LPS-stimulated IL-12p40 production: “X” signifies significant inhibition at a particular concentration; conditions: 18 hours
# Description: as §1, §2, §3
# MIP-1α = assay: LPS-stimulated MIP-1α production in THP-1 monocytes (multiplex Luminex); design: key to Inhibition of LPS-stimulated MIP-1α production: “X” signifies significant inhibition at a particular concentration; conditions: 18 hours, THP-1 monocytes
# Description: as §1, §2, §3
# IL-1α = assay: LPS-stimulated IL-1α production in THP-1 monocytes (multiplex Luminex); design: key to Inhibition of LPS-stimulated IL-1α production: “X” signifies significant inhibition at a particular concentration; conditions: 18 hours, THP-1 monocytes
# Description: as §1, §2, §3
# IL-1β = assay: LPS-stimulated IL-1β production in THP-1 monocytes (multiplex Luminex); design: key to Inhibition of LPS-stimulated IL-1β production: “X” signifies significant inhibition at a particular concentration; conditions: 18 hours, THP-1 monocytes
# Description: as §1, §2, §3
# IL-1ra = assay: LPS-stimulated IL-1ra production in THP-1 monocytes (multiplex Luminex); design: key to Inhibition of LPS-stimulated IL-1ra production: “X” signifies significant inhibition at a particular concentration; conditions: 18 hours, THP-1 monocytes
# Description: as §1, §2, §3
# VEGF = assay: LPS-stimulated VEGF production in THP-1 monocytes (multiplex Luminex); design: key to Inhibition of LPS-stimulated VEGF production: “X” signifies significant inhibition at a particular concentration; conditions: 30 μg/mL compound + 10 μg/mL LPS, 18 hours, THP-1 monocytes
# Description: as §1, §2, §3
# IP-10 = assay: LPS-stimulated IP-10 production in THP-1 monocytes (multiplex Luminex); design: key to Inhibition of LPS-stimulated IP-10 production: “X” signifies significant inhibition at a particular concentration; conditions: 18 hours, THP-1 monocytes
# Description: as §1, §2, §3
# IL-8 = assay: LPS-stimulated IL-8 production in THP-1 monocytes (multiplex Luminex); design: key to Inhibition of LPS-stimulated IL-8 production: “X” signifies significant inhibition at a particular concentration; conditions: 18 hours, THP-1 monocytes
# Description: as §1, §2, §3
# [1] = 10 μg/mL compound + 10 μg/mL LPS
# [2] = 30 μg/mL compound + 10 μg/mL LPS
smiles,measurement,setting,value
"COc1c(N2C[C@@H]3CCCN[C@@H]3C2)c(F)cc2c(=O)c(C(=O)O)cn(C3CC3)c12 [Moxifloxacin, moxifloxacin, reference compound]",Inhibition of LPS-stimulated IL-6 production,IL-6; [1],X
same,Concentration at which a significant inhibitory effect was observed for IL-6,IL-6; LPS-induced,10 µg/mL
same,Inhibition of LPS-stimulated IL-12p40 production,IL-12p40; 1 μg/mL compound + 10 μg/mL LPS,X
same,Inhibition of LPS-stimulated IL-12p40 production,IL-12p40; [1],X
same,Inhibition of LPS-stimulated IL-12p40 production,IL-12p40; [2],X
same,Concentration at which a significant inhibitory effect was observed for IL-12p40,IL-12p40; LPS-induced,1 µg/mL
same,Inhibition of LPS-stimulated MIP-1α production,MIP-1α; [2],X
same,Concentration at which a significant inhibitory effect was observed for MIP-1α,MIP-1α; LPS-induced,30 µg/mL
same,Inhibition of LPS-stimulated IL-1α production,IL-1α; [2],X
same,Concentration at which a significant inhibitory effect was observed for IL-1α,IL-1α; LPS-induced,30 µg/mL
same,Inhibition of LPS-stimulated IL-1β production,IL-1β; [2],X
same,Concentration at which a significant inhibitory effect was observed for IL-1β,IL-1β; LPS-induced,30 µg/mL
same,Inhibition of LPS-stimulated IL-1ra production,IL-1ra; [1],X
same,Inhibition of LPS-stimulated IL-1ra production,IL-1ra; [2],X
same,Concentration at which a significant inhibitory effect was observed for IL-1ra,IL-1ra; LPS-induced,10 µg/mL
same,Inhibition of LPS-stimulated VEGF production,VEGF,X
same,Inhibition of LPS-stimulated IP-10 production,IP-10; [2],X
same,Concentration at which a significant inhibitory effect was observed for IP-10,IP-10; LPS-induced,30 µg/mL
same,Inhibition of LPS-stimulated IL-8 production,IL-8; [2],X
same,Concentration at which a significant inhibitory effect was observed for IL-8,IL-8; LPS-induced,30 µg/mL
